Reference: US11028054B2, “1, 4, 6-trisubstituted-2-alkyl-1H-benzo[d]imidazole derivatives as dihydroorotate oxygenase inhibitors” (Merck Patent GmbH, priority 2017, dated 2021)

How the values were obtained:
DHODH [1] = target: T1, DHODH (Homo sapiens (Human), UniProt Q02127); assay: Measurement of DHODH inhibitory enzyme activity (coupled DCIP reduction assay); type: biochemical
Text: Measurement of DHODH Inhibitory Enzyme Activity (In Vitro Assays)
The DHODH activity assay is a coupled enzyme assay in which oxidation of DHO and subsequent reduction of ubiquinone are stoichiometrically equivalent to the reduction of DCIP ([…]). The reduction of DCIP is accompanied by a loss of absorbance at 610 nm.
Reagents used: L-Dihydroorotic acid, Sigma, D7128, 2,6-Dichloroindophenol sodium salt hydrate, sigma, D1878 Dimethyl sulfoxide (DMSO), spectroscopic grade purchased from Spectrochem, cat no. 0704209, B. no.—3183650 Decylubiquinone, Sigma, D7911.
Preparation of Solutions/Reagents:
Buffer Preparation: 50 mM tris HCl, 150 mM KCl, and pH 8.0, 0.8% triton.
L-Dihydroorotic acid stock solution of 20 mM in buffer.
2, 6-Dichloroindophenol Sodium salt hydrate stock solution of 20 mM in buffer.
Decylubiquinone stock solution of 20 mM in buffer.
5 μL of Dimethyl sulfoxide or a compound of formula (I) in DMSO solution was added to the wells of a 96 well plate. Compounds of formula (I) were measured at 10 μM.
Protein along with buffer was added, so that the total volume including the DMSO was 87 μL. Compound and protein were incubated for half an hour at room temperature after mixing. 5 μL of 20 mM solution of L-Dihydroorotic acid, 5 μL of 2 mM solution of Decylubiquinone and 3 μL of 2 mM solution of 2, 6-Dichloroindophenol sodium salt hydrate were added to the above solution (total assay volume 100 μL). The mixture was stirred for 2 min and absorbance was recorded at every 10 min at 610 nanometers.
Percent inhibition is calculated as follows 100*{(Abs610 for reaction containing compound)−(Abs610 for positive control) (Abs610 for no enzyme reaction)−(Abs610 for positive control) Reaction containing compound has compound, buffer, enzyme and substrates Positive control contains DMSO, buffer, enzyme and substrates No Enzyme reaction contains DMSO, buffer and substrates IC50 determination: A 2 mM DMSO stock solution of the selected 1, 4, 6-trisubstituted-2-alkyl-1H-benzo[d]imidazole derivatives of formula (I) of the present invention to be examined was prepared. Subsequent ⅓rd dilutions were made as follows:
5 μL of each stock of compound of formula (I) (solution indicated in column 4 of table) was used for each 100 μL assay. Therefore, 5 μL of the 2 mM stock provided 100 μL of 100 μM solution of compound of formula (I), when made up with buffer, protein and substrate. See also: Ulrich et al. (2001) Eur. J. Biochem. 268, 1861-1868.

Jurkat cells = assay: Measurement of cell proliferation activity (Jurkat cell), XTT assay; type: cell-based; conditions: Homo sapiens, 72 hrs incubation, cell viability by XTT assay
Text: Measurement of Cell Proliferation Activity (Jurkat Cell)
Jurkat cells are an immortalized cell line of T lymphocyte cells, which are used to study acute T cell leukaemia, T cell signalling, and the expression of various chemokine receptors susceptible to viral entry, particularly HIV. Jurkat cells are also useful in science because of their ability to produce interleukin 2. Their primary use, however, is to determine the mechanism of differential susceptibility of cancers to drugs and radiation.
Jurkat cells are cultured in RPMI medium with 10% FBS, and seeded at a density of 100,000 cells per well in a 96 well plate. Compound is added at different concentrations (typically starting at 10 μM followed by half log dilutions for a total of 8-10 concentrations). Each concentration is tested in triplicate and DMSO concentration is kept constant at 0.25-0.5%. The cells are then incubated in a CO2 incubator at 37° C. for 72 hrs before determining cell viability using XTT assay. Cell viability is plotted as a function of concentration and EC50 is determined using GraphPad Prism software
• Roehm, N et al [1991] An improved colorimetric assay for cell proliferation and viability utilizing the tetrazolium salt XTT. J. Immunol. Methods 142:257-265. Reagents: Roswells park memorial institute's medium, (RPMI-1640 complete media) pH-7.4±0.2 (Sigma R6504). • Dimethyl sulfoxide (DMSO), spectroscopic grade purchased from Spectrochem, (cat no. 0704209, B. no.—3183650 MEM Cat. No. M0268, Sigma). Fetal Bovine Serum (Cat. No. F9665, Sigma Aldrich). XTT sodium salt (Sigma Cat. No. X4251). PMS (Sigma Cat. No. 68600). Preparation of Solutions/Reagents
RPMI media supplemented with antibiotics, 10% FBS, Sodium Pyruvate and NEA (non essential amino acids).
XTT—A freshly prepared solution of XTT is made in the growth medium, with a final concentration of 1 mg/ml.
PMS—Stock is prepared with 1×PBS at 0.383 mg/ml and stored in aliquots at −20° C. The XTT solution at 20 μl/ml was added just before use.
Test solution—Serially diluted DMSO solutions are further diluted with media to 2× the required concentration in well.
Culture Jurkat cells in T-25 flasks at a density of 0.2×10^6/ml 2-3 days before the day of experiment set up.
Centrifuge Jurkat T-cell suspension at 1200 rpm for 10 minutes and resuspend cells again in fresh RPMI medium with 10% FBS. Count the cells and dilute suspension to a density of 2×10^6 cells/ml. Seed 50 μL of this suspension in each well of a 96 well plate (100,000 cells per well). Keep the edges of the plate empty to avoid evaporation. […]
XTT assay: to each well, add 50 μL of 1 mg/ml XTT solution with 20 μl of PMS/mL. Read the plates after 2 hours at 465 nm using the spectrophotometer. XTT reading for media without cells is used as background reading. […]

DHODH [2] = target: T1, DHODH; conditions: DHODH versus protein tyrosine kinase; cited from earlier work

T1 sequence (Q02127 whole entry): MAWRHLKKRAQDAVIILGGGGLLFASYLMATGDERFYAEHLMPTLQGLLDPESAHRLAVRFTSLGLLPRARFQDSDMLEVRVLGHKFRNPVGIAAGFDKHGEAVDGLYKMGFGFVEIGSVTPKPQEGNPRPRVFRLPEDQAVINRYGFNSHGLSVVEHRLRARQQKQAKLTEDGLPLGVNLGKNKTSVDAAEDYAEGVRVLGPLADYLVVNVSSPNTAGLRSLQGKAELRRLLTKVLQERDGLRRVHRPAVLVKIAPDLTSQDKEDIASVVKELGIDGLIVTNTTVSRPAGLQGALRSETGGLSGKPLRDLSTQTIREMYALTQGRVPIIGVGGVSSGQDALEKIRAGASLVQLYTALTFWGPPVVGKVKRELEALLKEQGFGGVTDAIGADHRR

Structure (SMILES) | IC50 (DHODH [1]) | EC50 (Jurkat cells) | fold greater inhibitor of DHODH than of protein tyrosine kinase (DHODH [2])
COc1cccc(-c2ccc(-c3cc(C(=O)O)c4nc(C)[nH]c4c3)cc2)c1 [Example 10, 6-(3'-methoxy-[1,1'-biphenyl]-4-yl)-2-methyl-1H-benzo[d]imidazole-4-carboxylic acid] | 10 to 99 nM | 32 nM | 
Cc1nc2c(C(=O)O)cc(-c3ccc(-c4ccccc4F)cc3)cc2[nH]1 [Example 5, 6-(2'-fluoro-[1,1'-biphenyl]-4-yl)-2-methyl-1H-benzo[d]imidazole-4-carboxylic acid] | 10 to 99 nM | 49 nM | 
C/C(O)=C(\C#N)C(=O)Nc1ccc(C(F)(F)F)cc1 [Teriflunomide] |  |  | 100-1,000 fold
Cc1nc2c(C(=O)O)cc(-c3ccc(-c4ccccc4)cc3)cc2[nH]1 [Example 1, 6-([1,1'-biphenyl]-4-yl)-2-methyl-1H-benzo[d]imidazole-4-carboxylic acid] | 10 to 99 nM | 133 nM | 
COc1ccccc1-c1ccc(-c2cc(C(=O)O)c3nc(C)[nH]c3c2)cc1 [Example 18, 6-(2'-methoxy-[1,1'-biphenyl]-4-yl)-2-methyl-1H-benzo[d]imidazole-4-carboxylic acid] | 10 to 99 nM | 111 nM | 

Second part, led by results:

IC50 (DHODH [1]) | EC50 (Jurkat cells) | Structure (SMILES) | fold greater inhibitor of DHODH than of protein tyrosine kinase (DHODH [2])
1 to 9.9 nM |  | Cc1nc2c(C(=O)O)cc(-c3ccc(OCc4ccccc4)cc3)cc2[nH]1 [Example 69, 6-(4-(benzyloxy)phenyl)-2-methyl-1H-benzo[d]imidazole-4-carboxylic acid] | 
1 to 9.9 nM |  | Cc1nc2c(C(=O)O)cc(-c3c(F)c(F)c(-c4ccc(CN5CCS(=O)(=O)CC5)cc4)c(F)c3F)cc2[nH]1 [Example 65, 6-(4'-((1,1-dioxidothiomorpholino)methyl)-2,3,5,6-tetrafluoro-[1,1'-biphenyl]-4-yl)-2-methyl-1H-benzo[d]imidazole-4-carboxylic acid.2,2,2-trifluoroacetic acid] | 
